This note sets out measurements from the supplement of paper PMC4976141.

In this data set the test system is PC9. As to the kind of experiment: cell count fold change with erlotinib, miRNA mimic vs non-targeting control (log2 ratio); higher = more drug-tolerant survivors than NTC. Particulars: erlotinib 1 µM; 72 h drug + 72 h drug-free recovery; perturbation: miRNA mimic.

With AAAAACUGUAAUUACUUUU, the “cell count fold change with erlotinib” value stood at 0.031.

As to AAAAGCUGGGUUGAGAGGGCGA, the “cell count fold change with erlotinib” value was -2.14.

For AAACCUGUGUUGUUCAAGAGUC, the “cell count fold change with erlotinib” value was -0.0774.

On to AAAGACAUAGGAUAGAGUCACCUC, for which the “cell count fold change with erlotinib” value is -0.142.

In the case of AAAGCGCUUCCCUUCAGAGUG, the “cell count fold change with erlotinib” value was -1.78.

Turning to AAAGUAGCUGUACCAUUUGC, the “cell count fold change with erlotinib” value is -2.51.

AAAGUGCAUCCUUUUAGAGGUU: the “cell count fold change with erlotinib” value was -0.881.

On to AAAGUGCUGCGACAUUUGAGCGU, for which the “cell count fold change with erlotinib” value amounted to 0.0776.

In the case of AAAGUGCUUCCUUUUAGAGGG, the “cell count fold change with erlotinib” value is -0.225.

In the case of AAAGUGCUUCCUUUUAGAGGGU, the “cell count fold change with erlotinib” value turned out to be 0.14.

AAAGUGCUUCUCUUUGGUGGGU: the “cell count fold change with erlotinib” value amounted to 0.279.

Regarding AACAUAGAGGAAAUUCCACGU, the “cell count fold change with erlotinib” value was -1.33.

As for AACAUUCAACGCUGUCGGUGAGU, the “cell count fold change with erlotinib” value is -3.99.

For the sequence AACCCGUAGAUCCGAUCUUGUG, the “cell count fold change with erlotinib” value was -0.33.

Regarding AACUGGCCCUCAAAGUCCCGCU, the “cell count fold change with erlotinib” value is -0.145.

For AAGAUGUGGAAAAAUUGGAAUC, the “cell count fold change with erlotinib” value was -0.304.

As to AAGCAGCUGCCUCUGAGGC, the “cell count fold change with erlotinib” value came out at 0.0583.

Regarding AAGCAUUCUUUCAUUGGUUGG, the “cell count fold change with erlotinib” value is -1.49.

In the case of AAGCCCUUACCCCAAAAAGCAU, the “cell count fold change with erlotinib” value is -1.75.

With AAGGAGCUCACAGUCUAUUGAG, the “cell count fold change with erlotinib” value is -1.13.

As to AAGGAGCUUACAAUCUAGCUGGG, the “cell count fold change with erlotinib” value is -0.343.

As to AAGUGAUCUAAAGGCCUACAU, the “cell count fold change with erlotinib” value is -3.48.

As to AAGUGUGCAGGGCACUGGU, the “cell count fold change with erlotinib” value is -3.4.

AAUCAUACAGGGACAUCCAGUU: the “cell count fold change with erlotinib” value was -1.33.

As to ACAAAGUGCUUCCCUUUAGAGUGU, the “cell count fold change with erlotinib” value was -0.659.

Regarding ACCCUAUCAAUAUUGUCUCUGC, the “cell count fold change with erlotinib” value is -3.19.

For ACGGAUGUUUGAGCAUGUGCUA, the “cell count fold change with erlotinib” value is -2.45.

Turning to ACGGGUUAGGCUCUUGGGAGCU, the “cell count fold change with erlotinib” value was -2.04.

In the case of ACUGCAUUAUGAGCACUUAAAG, the “cell count fold change with erlotinib” value is -0.728.

For ACUGUAGUAUGGGCACUUCCAG, the “cell count fold change with erlotinib” value was -1.17.

For ACUUGUAUGCUAGCUCAGGUAG, the “cell count fold change with erlotinib” value is -0.236.

Turning to AGACCAUGGGUUCUCAUUGU, the “cell count fold change with erlotinib” value is -1.65.

In the case of AGACCUGGCCCAGACCUCAGC, the “cell count fold change with erlotinib” value came to 0.672.

In the case of AGACUUCCCAUUUGAAGGUGGC, the “cell count fold change with erlotinib” value was -0.166.

Turning to AGAGCUUAGCUGAUUGGUGAAC, the “cell count fold change with erlotinib” value is -3.36.

For AGAUCAGAAGGUGAUUGUGGCU, the “cell count fold change with erlotinib” value is -0.11.

AGCAGCAUUGUACAGGGCUAUCA: the “cell count fold change with erlotinib” value was -0.458.

For AGCAGCAUUGUACAGGGCUAUGA, the “cell count fold change with erlotinib” value was -0.577.

As to AGCCUGGAAGCUGGAGCCUGCAGU, the “cell count fold change with erlotinib” value was -0.167.

For AGCUGGUGUUGUGAAUCAGGCCG, the “cell count fold change with erlotinib” value was -0.131.

As for AGGACCUGCGGGACAAGAUUCUU, the “cell count fold change with erlotinib” value turned out to be 0.369.

For AGGAUGAGCAAAGAAAGUAGAUU, the “cell count fold change with erlotinib” value was -2.25.

For the sequence AGGCAGCGGGGUGUAGUGGAUA, the “cell count fold change with erlotinib” value amounted to 1.05.

As to AGGCAGUGUAGUUAGCUGAUUGC, the “cell count fold change with erlotinib” value amounted to 1.35.

Turning to AGGCGGAGACUUGGGCAAUUG, the “cell count fold change with erlotinib” value was -3.29.

For the sequence AGGGCUUAGCUGCUUGUGAGCA, the “cell count fold change with erlotinib” value was -3.74.

On to AGGGGUGCUAUCUGUGAUUGA, for which the “cell count fold change with erlotinib” value came out at 0.941.

Regarding AGGGGUGGUGUUGGGACAGCUCCGU, the “cell count fold change with erlotinib” value is -0.171.

Turning to AGGGUGUUUCUCUCAUCUCU, the “cell count fold change with erlotinib” value was -1.29.

As for AGGUUACCCGAGCAACUUUGCAU, the “cell count fold change with erlotinib” value was -0.13.

As for AGGUUGGGAUCGGUUGCAAUGCU, the “cell count fold change with erlotinib” value was -0.41.

As to AGGUUGUCCGUGGUGAGUUCGCA, the “cell count fold change with erlotinib” value was -0.399.

With AGUCAUUGGAGGGUUUGAGCAG, the “cell count fold change with erlotinib” value was -3.38.

With AGUGAAUGAUGGGUUCUGACC, the “cell count fold change with erlotinib” value was -3.04.

With AGUGCCUGAGGGAGUAAGAGCCC, the “cell count fold change with erlotinib” value is -2.56.

For AGUUUUGCAGGUUUGCAUCCAGC, the “cell count fold change with erlotinib” value is -0.535.

On to AGUUUUGCAGGUUUGCAUUUCA, for which the “cell count fold change with erlotinib” value is -0.889.

As to AGUUUUGCAUAGUUGCACUACA, the “cell count fold change with erlotinib” value was -2.57.

In the case of AUCACAUUGCCAGGGAUUUCC, the “cell count fold change with erlotinib” value is -1.61.

Consider AUCAUAGAGGAAAAUCCACGU, for which the “cell count fold change with erlotinib” value was -3.73.

Regarding AUCAUGAUGGGCUCCUCGGUGU, the “cell count fold change with erlotinib” value is -3.05.

On to AUGCUGACAUAUUUACUAGAGG, for which the “cell count fold change with erlotinib” value is -1.82.

Turning to AUGGUUCCGUCAAGCACCAUGG, the “cell count fold change with erlotinib” value was -2.16.

Take AUGUAGGGCUAAAAGCCAUGGG: the “cell count fold change with erlotinib” value is -1.51.

AUGUAUGUGUGCAUGUGCAUG: the “cell count fold change with erlotinib” value is 0.321.

For the sequence AUUCCUAGAAAUUGUUCAUA, the “cell count fold change with erlotinib” value worked out at 0.458.

For the sequence AUUCUGCAUUUUUAGCAAGUUC, the “cell count fold change with erlotinib” value is -0.25.

With CAAAGAGGAAGGUCCCAUUAC, the “cell count fold change with erlotinib” value is -0.517.

For the sequence CAAAGCGCUCCCCUUUAGAGGU, the “cell count fold change with erlotinib” value is -0.185.

For the sequence CAAAGCGCUUCCCUUUGGAGC, the “cell count fold change with erlotinib” value was -0.111.

As to CAACCUGGAGGACUCCAUGCUG, the “cell count fold change with erlotinib” value is -0.199.

CAACGGAAUCCCAAAAGCAGCUG: the “cell count fold change with erlotinib” value was -1.27.

Turning to CAAGCUCGUGUCUGUGGGUCCG, the “cell count fold change with erlotinib” value is -1.13.

As to CACACACUGCAAUUACUUUUGC, the “cell count fold change with erlotinib” value is -3.13.

CAGCAGCAAUUCAUGUUUUGAA: the “cell count fold change with erlotinib” value is -3.25.

Take CAGGGAGGUGAAUGUGAU: the “cell count fold change with erlotinib” value is 1.99.

As for CAGUGCAAUAGUAUUGUCAAAGC, the “cell count fold change with erlotinib” value was -2.72.

With CAGUGCAAUGAUAUUGUCAAAGC, the “cell count fold change with erlotinib” value is -2.68.

Turning to CAGUGCAAUGAUGAAAGGGCAU, the “cell count fold change with erlotinib” value is -2.17.

With CAGUGCAAUGUUAAAAGGGCAU, the “cell count fold change with erlotinib” value is -3.02.

Regarding CAGUUAUCACAGUGCUGAUGCU, the “cell count fold change with erlotinib” value is -1.92.

CAUCUUACCGGACAGUGCUGGA: the “cell count fold change with erlotinib” value is -0.519.

With CAUCUUACUGGGCAGCAUUGGA, the “cell count fold change with erlotinib” value was -2.32.

Take CAUCUUCCAGUACAGUGUUGGA: the “cell count fold change with erlotinib” value came out at 0.0817.

As to CCAGUAUUAACUGUGCUGCUGA, the “cell count fold change with erlotinib” value is -1.92.

As to CCCCCACAACCGCGCUUGACUAGCU, the “cell count fold change with erlotinib” value was -0.523.

In the case of CCUCUGAAAUUCAGUUCUUCAG, the “cell count fold change with erlotinib” value is -0.736.

As to CCUCUGGGCCCUUCCUCCAG, the “cell count fold change with erlotinib” value was 0.0835.

CGAAAACAGCAAUUACCUUUGC: the “cell count fold change with erlotinib” value is -2.67.

For CGGGGCAGCUCAGUACAGGAU, the “cell count fold change with erlotinib” value was found to be 0.97.

With CGGGUCGGAGUUAGCUCAAGCGG, the “cell count fold change with erlotinib” value is -0.802.

In the case of CGUGUAUUUGACAAGCUGAGUU, the “cell count fold change with erlotinib” value was -5.21.

As to CUACAAAGGGAAGCACUUUCUC, the “cell count fold change with erlotinib” value was -2.75.

Turning to CUAGUGAGGGACAGAACCAGGAUUC, the “cell count fold change with erlotinib” value was -2.96.

As to CUCAGUAGCCAGUGUAGAUCCU, the “cell count fold change with erlotinib” value is -4.13.

Take CUCCAGAGGGAAGUACUUUCU: the “cell count fold change with erlotinib” value is -1.13.

For the sequence CUCUAGAGGGAAGCACUUUCUC, the “cell count fold change with erlotinib” value was -0.525.

On to CUCUAGAGGGAAGCGCUUUCUG, for which the “cell count fold change with erlotinib” value is -1.78.

For CUCUCACCACUGCCCUCCCACAG, the “cell count fold change with erlotinib” value was -1.11.

As for CUCUUGAGGGAAGCACUUUCUGU, the “cell count fold change with erlotinib” value was -1.33.

Consider CUGAAGUGAUGUGUAACUGAUCAG, for which the “cell count fold change with erlotinib” value was -3.44.

For CUGCAAAGGGAAGCCCUUUC, the “cell count fold change with erlotinib” value was -3.43.

As for CUGGAGAUAUGGAAGAGCUGUGU, the “cell count fold change with erlotinib” value was -0.316.

As for CUGGUUUCACAUGGUGGCUUAG, the “cell count fold change with erlotinib” value was -2.28.

Turning to CUUAUGCAAGAUUCCCUUCUAC, the “cell count fold change with erlotinib” value is -1.68.

GAAAGCGCUUCCCUUUGCUGGA: the “cell count fold change with erlotinib” value was -0.859.

With GAAAGCGCUUCUCUUUAGAGG, the “cell count fold change with erlotinib” value was -0.525.

On to GAAAGUGCUUCCUUUUAGAGGC, for which the “cell count fold change with erlotinib” value was -0.077.

Regarding GAAGGCGCUUCCCUUUAGAGCG, the “cell count fold change with erlotinib” value was -2.22.

For GAAGUGCUUCGAUUUUGGGGUGU, the “cell count fold change with erlotinib” value is -0.122.

In the case of GAGUGCCUUCUUUUGGAGCGUU, the “cell count fold change with erlotinib” value was -4.05.

In the case of GAUGAGCUCAUUGUAAUAUGAG, the “cell count fold change with erlotinib” value is -2.97.

Take GAUUAGGGUGCUUAGCUGUUAA: the “cell count fold change with erlotinib” value was -2.53.

Consider GAUUGCUCUGCGUGCGGAAUCGAC, for which the “cell count fold change with erlotinib” value was -1.68.

For GCAUGGGUGGUUCAGUGG, the “cell count fold change with erlotinib” value worked out at 0.259.

GGGCGACAAAGCAAGACUCUUUCUU: the “cell count fold change with erlotinib” value is -2.38.

Consider GGGGAGCUGUGGAAGCAGUA, for which the “cell count fold change with erlotinib” value was -2.06.

On to GGUGCAGUGCUGCAUCUCUGGU, for which the “cell count fold change with erlotinib” value was -1.52.

As for GGUUUGGUCCUAGCCUUUCUA, the “cell count fold change with erlotinib” value is 0.113.

With GUAGAUUCUCCUUCUAUGAGUA, the “cell count fold change with erlotinib” value was -1.33.

As for GUGAAUUACCGAAGGGCCAUAA, the “cell count fold change with erlotinib” value is -2.07.
